We go through one compound from patent US11597703B2, “Caspase inhibitors and methods of use thereof” (Histogen Inc., priority 2019, dated 2023).

This test in a line: Rodent model of ulcerative colitis induced by TNBS. Format: in vivo, Sprague-Dawley rats. On the procedure: Compounds of the present invention were tested by oral administration in a rodent model of ulcerative colitis (UC). Ulcerative colitis was induced in Sprague-Dawley rats by instillation of 48 mg/kg […], (TNBS), through the rectum. Testing included 4 active treatment groups and one vehicle control group.
Effect of TNBS-Induced UC in Vehicle Treated Control Group, (Group 1):
Rats were administered of 0.5% vehicle carboxy methylcellulose, (CMC), twice daily starting 24 hours after the instillation of TNBS.
At the termination of the study on DAY 7, the average colon weight in the diseased rats was 5.904±2.208 g, the average colon length was 11.0±1.4 cm and the average distal colon width was 3.1±1.0 cm. Severe adhesions involving multiple intestinal loops, severe stricture resulting in proximal colon distension, ulcers of 6.4±0.4 cm in length, and colonic wall thickness of 3.5±0.8 mm combined to yield an overall colonic score of 11.5±0.8 in the diseased rats. […] Subacute inflammation (sub/mucosal and transmural/serosal were graded separately) was characterized by infiltration and aggregation of neutrophils, eosinophils, lymphocytes, plasma cells, and macrophages. Mucosal necrosis was characterized by damage to, necrosis of, or complete loss of colonic glands. Erosions were characterized by coagulative necrosis or loss of surface epithelium superficial to the muscularis mucosae. Submucosal edema was characterized by expansion of the submucosa by clear space or pale eosinophilic fluid, variably accompanied by dilation of lymphatic vessels and similar edematous expansion of the lamina propria. Epithelial hyperplasia was characterized by elongation of colonic glands and increased numbers of epithelial mitotic figures.

The mark [1] stands for this setting: 10 mg/kg once daily oral, starting 24 hours after TNBS.
The mark [2] stands for this setting: Group 2, prednisolone 10 mg/kg once daily oral, DAY 7.

Consider `C[C@]12C=CC(=O)C=C1CC[C@@H]1[C@@H]2[C@@H](O)C[C@@]2(C)[C@H]1CC[C@]2(O)C(=O)CO` [Prednisolone, reference compound], for which, under setting [1], the “all measured colon parameters” value is given as “significantly improved”, the “animal health as reflected by body weight” value was “improved animal health by DAY 4”, the “average inhibition of the histological parameters” value is 40% and the “reduction in the overall colonic score” value was 67%. For the same compound, under setting [2], the “colon histology: Edema, Submucosal, Mean” value came out at 2.3; the “colon histology: Erosion/ Ulceration, Mean” value came to 2.9; the “colon histology: Hyperplasia, Epithelial, Mean” value is given as 2.9; the “colon histology: Necrosis, Mucosal/ Gland Loss, Mean” value was found to be 2.9. Further, under setting [2], the “colon histology: SUM Score, Mean” value was determined as 16.3; the “colon histology: Subacute Inflammation, Mucosal/ Submucosal, Mean” value was 3.5; the “colon histology: Subacute Inflammation, Transmural/ Serosal, Mean” value is 2.8. Where the note is “Group 2, prednisolone 10 mg/kg once daily oral, study day 0”, the average animal weight, Mean was determined as 235 g. Under “Group 2, prednisolone 10 mg/kg once daily oral, study day 1”, this compound showed an average animal weight, Mean of 232 g. For the same compound, the average animal weight, Mean (Group 2, prednisolone 10 mg/kg once daily oral, study day 2) turned out to be 221 g. For the setting “Group 2, prednisolone 10 mg/kg once daily oral, study day 3”, this compound gave an average animal weight, Mean of 223 g. This compound also gave an average animal weight, Mean (Group 2, prednisolone 10 mg/kg once daily oral, study day 4) of 223 g. For the setting “Group 2, prednisolone 10 mg/kg once daily oral, study day 5”, this compound registered an average animal weight, Mean of 227 g. The compound further registered an average animal weight, Mean (Group 2, prednisolone 10 mg/kg once daily oral, study day 6) of 227 g. For the same compound, under “Group 2, prednisolone 10 mg/kg once daily oral, study day 7”, the average animal weight, Mean was 229 g. Under “Group 2, prednisolone 10 mg/kg once daily oral, study day −1”, this compound showed an average animal weight, Mean of 249 g. The compound further gave an average animal weight, Mean (Group 2, prednisolone 10 mg/kg once daily oral, study day −5) of 222 g.
